Laboratory results as given in BindingDB's records for patent US12168664 (Columbia University, 2024).

Biological target: Retinol-binding protein 4 (Homo sapiens, UniProt P02753)
Experiment: Scintillation Proximity RBP4 Binding Assay
Experimental: Untagged human RBP4 purified from the urine of tubular proteinuria patients was purchased from Fitzgerald Industries International. It was biotinylated using the EZ-Link Sulfo-NHS-LC-Biotinylation kit from Pierce following the manufacturer's recommendations. […] Nonspecific binding was determined in the presence of 20 μM of unlabeled retinol. The reaction mix was assembled in the dark under dim red light. The plates were sealed with clear tape (TopSeal-A: 96-well microplate, PerkinElmer), wrapped in the aluminum foil, and allowed to equilibrate 6 hours at room temperature followed by overnight incubation at +4° C. Radiocounts were measured using a TopCount NXT counter (Packard Instrument Company).

Compound	IC50 [µM]
O=C(c1c[nH]c2cnccc12)N1C[C@H]2C[C@@H](c3ccccc3C(F)(F)F)C[C@H]2C1 [US12168664, Compound 8a]	> 3
O=C(c1c[nH]c2ccncc12)N1C[C@H]2C[C@@H](c3ccccc3C(F)(F)F)C[C@H]2C1 [US12168664, Compound 8b]	> 3
